Patent US7612064B2, “Sulfopyrroles” (Takeda Pharmaceutical Company Limited, priority 2003, dated 2009)

Key:
[1] = Hoechst 33342 nuclear staining; format: cell-based; conditions: for Hoechst 33342 nuclear staining score, H460: H460 cells; for Hoechst 33342 nuclear staining score, HeLa: HeLa cells; for Hoechst 33342 nuclear staining score, Jily: Jily cells; for Hoechst 33342 nuclear staining score, Jurkat: Jurkat cells; for Hoechst 33342 nuclear staining score, MRC5: MRC5 cells;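 on all read-outs here: apoptotic nuclei scored 0 none 1 weak under 50% of cells 2 strong over 50% of cells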
Method in brief: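 After a further 30 min incubation, plates were inspected on a standard inverted fluorescence microscope. The fraction of apoptotic nuclei and other apoptosis-specific morphology were scored as 0 for no activity, 1 for weak activity in less than 50% of the cells, and 2 for strong activity in more than 50% of the cells.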

[2] = tested on: MRC5; assay: MTS proliferation assay; format: cell-based; conditions: MRC5, 72 h
Method in brief: (§1)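 Viability read-out is MTS absorbance at 492 nm after 3 h reagent incubation. It follows 72 h culture-condition treatment at four final concentrations (10, 3, 1, 0.3 μM), compounds delivered in medium holding max 5% DMSO.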

[3] = tested on: Jily; assay: MTS proliferation assay; format: cell-based; conditions: 72 h
Method in brief: as §1

[4] = tested on: Jurkat; assay: MTS proliferation assay; format: cell-based, human; conditions: 72 h
Method in brief: as §1

[5] = tested on: HeLa; assay: MTS proliferation assay; format: cell-based, human; conditions: 72 h
Method in brief: as §1

SMILES	Hoechst 33342 nuclear staining score, H460 ([1]; conc 0.1)	Hoechst 33342 nuclear staining score, H460 ([1]; conc 0.3)	Hoechst 33342 nuclear staining score, H460 ([1]; conc 1)	Hoechst 33342 nuclear staining score, H460 ([1]; conc 3)	Hoechst 33342 nuclear staining score, HeLa ([1]; conc 0.1)	Hoechst 33342 nuclear staining score, HeLa ([1]; conc 0.3)	Hoechst 33342 nuclear staining score, HeLa ([1]; conc 1)	Hoechst 33342 nuclear staining score, HeLa ([1]; conc 3)	Hoechst 33342 nuclear staining score, Jily ([1]; conc 0.1)	Hoechst 33342 nuclear staining score, Jily ([1]; conc 0.3)	Hoechst 33342 nuclear staining score, Jily ([1]; conc 1)	Hoechst 33342 nuclear staining score, Jily ([1]; conc 3)	Hoechst 33342 nuclear staining score, Jurkat ([1]; conc 0.1)	Hoechst 33342 nuclear staining score, Jurkat ([1]; conc 0.3)	Hoechst 33342 nuclear staining score, Jurkat ([1]; conc 1)	Hoechst 33342 nuclear staining score, Jurkat ([1]; conc 3)	Hoechst 33342 nuclear staining score, MRC5 ([1]; conc 0.1)	Hoechst 33342 nuclear staining score, MRC5 ([1]; conc 0.3)	Hoechst 33342 nuclear staining score, MRC5 ([1]; conc 1)	Hoechst 33342 nuclear staining score, MRC5 ([1]; conc 3)	also measured
COc1cc(-c2cc(-c3cccnc3)cn2S(=O)(=O)c2ccc(Cl)cc2)cc(OC)c1OC [Example 81]	0	0	0	2 (strong activity comprising more than 50% of the cells)	0	0	0	1 (weak activity comprising less than 50% of the cells)	0	0	0	1 (weak activity comprising less than 50% of the cells)	0	0	0	2 (strong activity comprising more than 50% of the cells)	0	0	0	0	Hoechst 33342 nuclear staining score, PBLs ([1]; conc 0.1): 0; Hoechst 33342 nuclear staining score, PBLs ([1]; conc 0.3): 0; Hoechst 33342 nuclear staining score, PBLs ([1]; conc 1): 0; Hoechst 33342 nuclear staining score, PBLs ([1]; conc 3): 0; IC50 [2]: > 1000 nM; IC50 [3]: > 1000 nM; IC50 [4]: > 1000 nM; IC50 [5]: > 1000 nM
COc1cc(-c2cc(-c3cccnc3)cn2S(=O)(=O)/C=C/c2ccccc2)cc(OC)c1OC [Example 89]	0	0	0	0	0	0	0	0	0	0	0	1 (weak activity comprising less than 50% of the cells)	0	0	0	1 (weak activity comprising less than 50% of the cells)	0	0	0	0	Hoechst 33342 nuclear staining score, PBLs ([1]; conc 0.1): 0; Hoechst 33342 nuclear staining score, PBLs ([1]; conc 0.3): 0; Hoechst 33342 nuclear staining score, PBLs ([1]; conc 1): 0; Hoechst 33342 nuclear staining score, PBLs ([1]; conc 3): 0; IC50 [2]: > 1000 nM; IC50 [3]: > 1000 nM; IC50 [4]: > 1000 nM; IC50 [5]: > 1000 nM
COc1cc(-c2cc(-c3cccnc3)cn2S(=O)(=O)c2ccc([N+](=O)[O-])cc2)cc(OC)c1OC [Example 92]	0	0	0	1 (weak activity comprising less than 50% of the cells)	0	0	0	0	0	0	0	2 (strong activity comprising more than 50% of the cells)	0	0	0	2 (strong activity comprising more than 50% of the cells)	0	0	0	0	Hoechst 33342 nuclear staining score, PBLs ([1]; conc 0.1): 0; Hoechst 33342 nuclear staining score, PBLs ([1]; conc 0.3): 0; Hoechst 33342 nuclear staining score, PBLs ([1]; conc 1): 0; Hoechst 33342 nuclear staining score, PBLs ([1]; conc 3): 0; IC50 [2]: > 1000 nM; IC50 [3]: > 1000 nM; IC50 [4]: > 1000 nM; IC50 [5]: > 1000 nM
COc1ccc(S(=O)(=O)n2cc(-c3ccc(N)nc3)cc2-c2ccccc2OC)cc1 [Example 103]	0	0	0	2 (strong activity comprising more than 50% of the cells)	0	0	0	2 (strong activity comprising more than 50% of the cells)	0	0	2 (strong activity comprising more than 50% of the cells)	2 (strong activity comprising more than 50% of the cells)	0	0	2 (strong activity comprising more than 50% of the cells)	2 (strong activity comprising more than 50% of the cells)	0	0	0	1 (weak activity comprising less than 50% of the cells)	Hoechst 33342 nuclear staining score, PBLs ([1]; conc 0.1): 0; Hoechst 33342 nuclear staining score, PBLs ([1]; conc 0.3): 0; Hoechst 33342 nuclear staining score, PBLs ([1]; conc 1): 0; Hoechst 33342 nuclear staining score, PBLs ([1]; conc 3): 0; IC50 [2]: > 1000 nM; IC50 [3]: < 1000 nM; IC50 [4]: < 1000 nM; IC50 [5]: > 1000 nM
COc1ccc(S(=O)(=O)n2cc(-c3cncc(C(N)=O)c3)cc2-c2cc(OC)ccc2OC)cc1 [Example 105]	0	0	0	2 (strong activity comprising more than 50% of the cells)	0	0	0	2 (strong activity comprising more than 50% of the cells)	0	0	2 (strong activity comprising more than 50% of the cells)	2 (strong activity comprising more than 50% of the cells)	0	0	2 (strong activity comprising more than 50% of the cells)	2 (strong activity comprising more than 50% of the cells)	0	0	0	1 (weak activity comprising less than 50% of the cells)	Hoechst 33342 nuclear staining score, PBLs ([1]; conc 0.1): 0; Hoechst 33342 nuclear staining score, PBLs ([1]; conc 0.3): 0; Hoechst 33342 nuclear staining score, PBLs ([1]; conc 1): 0; Hoechst 33342 nuclear staining score, PBLs ([1]; conc 3): 0; IC50 [2]: > 1000 nM; IC50 [3]: < 1000 nM; IC50 [4]: < 1000 nM; IC50 [5]: > 1000 nM
COc1cc(-c2cc(-c3cccnc3)cn2S(=O)(=O)c2ccc3c(c2)CCO3)cc(OC)c1OC [Example 86]	0	0	0	2 (strong activity comprising more than 50% of the cells)	0	0	0	1 (weak activity comprising less than 50% of the cells)	0	0	1 (weak activity comprising less than 50% of the cells)	2 (strong activity comprising more than 50% of the cells)	0	0	2 (strong activity comprising more than 50% of the cells)	2 (strong activity comprising more than 50% of the cells)	0	0	0	1 (weak activity comprising less than 50% of the cells)	Hoechst 33342 nuclear staining score, PBLs ([1]; conc 0.1): 0; Hoechst 33342 nuclear staining score, PBLs ([1]; conc 0.3): 0; Hoechst 33342 nuclear staining score, PBLs ([1]; conc 1): 0; Hoechst 33342 nuclear staining score, PBLs ([1]; conc 3): 0; IC50 [2]: > 1000 nM; IC50 [3]: < 1000 nM; IC50 [4]: < 1000 nM; IC50 [5]: > 1000 nM
